Measurements: ChEMBL document CHEMBL3044992, “Design, synthesis, and docking studies of novel ofloxacin analogues as antimicrobial agents” (2012)
Values after ≈ are worked out from the molar mass of the structure shown.

Columns and labels:
Type in all cases: functional
[1] = test system: Staphylococcus epidermidis; test: Antibacterial activity against Staphylococcus epidermidis after 24 hr by two-fold serial dilution method
Candida albicans [2] = test: Antifungal activity against Candida albicans at 25 ug/ml after 48 hr […]; conditions: read-out: IZ
Pseudomonas aeruginosa = test: Antibacterial activity against Pseudomonas aeruginosa after 24 hr by two-fold serial dilution method
Klebsiella pneumoniae = test: Antibacterial activity against Klebsiella pneumoniae after 24 hr by two-fold serial dilution method
Escherichia coli = test: Antibacterial activity against Escherichia coli after 24 hr by two-fold serial dilution method
Candida albicans [3] = test: Antifungal activity against Candida albicans at 50 ug/ml after 48 hr […]; conditions: read-out: IZ
Staphylococcus aureus = test: Antibacterial activity against Staphylococcus aureus after 24 hr by two-fold serial dilution method
Candida albicans [4] = test: Antifungal activity against Candida albicans at 100 ug/ml after 48 hr […]; conditions: read-out: IZ
Bacillus subtilis = test: Antibacterial activity against Bacillus subtilis after 24 hr by two-fold serial dilution method

MIC [1] [µg/mL] | MIC (Pseudomonas aeruginosa) [µg/mL] | MIC (Klebsiella pneumoniae) [µg/mL] | MIC (Escherichia coli) [µg/mL] | MIC (Staphylococcus aureus) [µg/mL] | MIC (Bacillus subtilis) [µg/mL] | Compound | zone of inhibition at 25 µg/mL (Candida albicans [2]) [mm] | zone of inhibition at 50 µg/mL (Candida albicans [3]) [mm] | zone of inhibition at 100 µg/mL (Candida albicans [4]) [mm]
0.5 (≈ 1 µM) | 0.25 (≈ 0.502 µM) | 0.12 (≈ 0.241 µM) | 0.5 (≈ 1 µM) | 0.125 (≈ 0.251 µM) | 0.5 (≈ 1 µM) | CC1COc2c(N3CCN(C)CC3)c(F)cc3c(=O)c(C(=O)N/N=C/c4ccccc4Cl)cn1c23 (stereo not given) | 16 | 18 | 22
0.25 (≈ 0.521 µM) | 0.12 (≈ 0.25 µM) | 1 (≈ 2.09 µM) | 1 (≈ 2.09 µM) | 0.25 (≈ 0.521 µM) | 0.5 (≈ 1.04 µM) | CC1COc2c(N3CCN(C)CC3)c(F)cc3c(=O)c(C(=O)N/N=C/c4ccccc4O)cn1c23 (stereo not given) | 15 | 18 | 21
0.25 (≈ 0.492 µM) | 0.5 (≈ 0.983 µM) | 0.5 (≈ 0.983 µM) | 0.5 (≈ 0.983 µM) | 0.25 (≈ 0.492 µM) | 0.5 (≈ 0.983 µM) | CC1COc2c(N3CCN(C)CC3)c(F)cc3c(=O)c(C(=O)N/N=C/c4cccc([N+](=O)[O-])c4)cn1c23 (stereo not given) | 15 | 17 | 20
0.25 (≈ 0.539 µM) | 1 (≈ 2.16 µM) | 0.25 (≈ 0.539 µM) | 1 (≈ 2.16 µM) | 0.125 (≈ 0.27 µM) | 0.5 (≈ 1.08 µM) | CC1COc2c(N3CCN(C)CC3)c(F)cc3c(=O)c(C(=O)N/N=C/c4ccccc4)cn1c23 (stereo not given) | 15 | 18 | 21
0.25 (≈ 0.507 µM) | 0.5 (≈ 1.01 µM) | 0.5 (≈ 1.01 µM) | 0.5 (≈ 1.01 µM) | 0.125 (≈ 0.253 µM) | 0.5 (≈ 1.01 µM) | COc1ccc(/C=N/NC(=O)c2cn3c4c(c(N5CCN(C)CC5)c(F)cc4c2=O)OCC3C)cc1 (stereo not given) | 18 | 20 | 23

The remaining lines, values behind:

Compound | MIC [1] [µg/mL] | MIC (Pseudomonas aeruginosa) [µg/mL] | MIC (Klebsiella pneumoniae) [µg/mL] | MIC (Escherichia coli) [µg/mL] | MIC (Staphylococcus aureus) [µg/mL] | MIC (Bacillus subtilis) [µg/mL] | zone of inhibition at 25 µg/mL (Candida albicans [2]) [mm] | zone of inhibition at 50 µg/mL (Candida albicans [3]) [mm] | zone of inhibition at 100 µg/mL (Candida albicans [4]) [mm]
CC1COc2c(N3CCN(C)CC3)c(F)cc3c(=O)c(-c4nn(CCC(=O)c5ccccc5)c(=S)o4)cn1c23 (stereo not given) | 0.5 (≈ 0.91 µM) | 2 (≈ 3.64 µM) | 0.25 (≈ 0.455 µM) | 1 (≈ 1.82 µM) | 0.25 (≈ 0.455 µM) | 0.5 (≈ 0.91 µM) | 16 | 19 | 22
CC1COc2c(N3CCN(C)CC3)c(F)cc3c(=O)c(C(=O)NNC=O)cn1c23 (stereo not given) | 0.25 (≈ 0.62 µM) | 1 (≈ 2.48 µM) | 1 (≈ 2.48 µM) | 1 (≈ 2.48 µM) | 0.25 (≈ 0.62 µM) | 0.5 (≈ 1.24 µM) | 18 | 21 | 23
CC(=O)CCn1nc(-c2cn3c4c(c(N5CCN(C)CC5)c(F)cc4c2=O)OCC3C)oc1=S (stereo not given) | 0.25 (≈ 0.513 µM) | 0.25 (≈ 0.513 µM) | 0.12 (≈ 0.246 µM) | 0.25 (≈ 0.513 µM) | 0.25 (≈ 0.513 µM) | 0.5 (≈ 1.03 µM) | 15 | 18 | 22
CC1COc2c(N3CCN(C)CC3)c(F)cc3c(=O)c(-c4nn(CCC(=O)c5ccc(N)cc5)c(=S)o4)cn1c23 (stereo not given) | 0.5 (≈ 0.886 µM) | 0.5 (≈ 0.886 µM) | 0.5 (≈ 0.886 µM) | 0.25 (≈ 0.443 µM) | 0.25 (≈ 0.443 µM) | 0.5 (≈ 0.886 µM) | 17 | 18 | 21
CC1COc2c(N3CCN(C)CC3)c(F)cc3c(=O)c(C(=O)O)cn1c23 (stereo not given) [OFLOXACIN] | 0.5 (≈ 1.38 µM) |  | 0.06 (≈ 0.166 µM) |  | 0.25 (≈ 0.692 µM) | 1 (≈ 2.77 µM) | 21 | 26 | 28
CC1COc2c(N3CCN(C)CC3)c(F)cc3c(=O)c(-c4nn(CCC(=O)c5ccccc5O)c(=S)n4N)cn1c23 (stereo not given) | 0.5 (≈ 0.863 µM) | 0.5 (≈ 0.863 µM) | 0.12 (≈ 0.207 µM) | 1 (≈ 1.73 µM) | 0.25 (≈ 0.431 µM) | 0.5 (≈ 0.863 µM) | 15 | 17 | 21
CC1COc2c(N3CCN(C)CC3)c(F)cc3c(=O)c(-c4nn(CCC(=O)Cc5cccc([N+](=O)[O-])c5)c(=S)n4N)cn1c23 (stereo not given) | 0.5 (≈ 0.803 µM) | 0.25 (≈ 0.401 µM) | 0.12 (≈ 0.193 µM) | 1 (≈ 1.61 µM) | 0.25 (≈ 0.401 µM) | 0.5 (≈ 0.803 µM) | 16 | 18 | 21
CC(=O)CCn1nc(-c2cn3c4c(c(N5CCN(C)CC5)c(F)cc4c2=O)OCC3C)n(N)c1=S (stereo not given) | 0.5 (≈ 0.997 µM) | 0.5 (≈ 0.997 µM) | 0.12 (≈ 0.239 µM) | 0.5 (≈ 0.997 µM) | 3.12 (≈ 6.23 µM) | 0.5 (≈ 0.997 µM) | 16 | 18 | 22
